# pIC50: −log10 of the molar value.
# Target: Coagulation factor X (Homo sapiens, UniProt P00742)
# Experiment: In vitro inhibitory activity against factor Xa
# Chain of Coagulation factor X (P00742 41-179 limits assumed): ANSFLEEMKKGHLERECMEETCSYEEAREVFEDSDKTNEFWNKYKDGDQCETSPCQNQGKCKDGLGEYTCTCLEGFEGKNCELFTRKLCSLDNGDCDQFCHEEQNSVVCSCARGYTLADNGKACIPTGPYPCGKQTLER
# Chain of Coagulation factor X (P00742 235-488 limits assumed): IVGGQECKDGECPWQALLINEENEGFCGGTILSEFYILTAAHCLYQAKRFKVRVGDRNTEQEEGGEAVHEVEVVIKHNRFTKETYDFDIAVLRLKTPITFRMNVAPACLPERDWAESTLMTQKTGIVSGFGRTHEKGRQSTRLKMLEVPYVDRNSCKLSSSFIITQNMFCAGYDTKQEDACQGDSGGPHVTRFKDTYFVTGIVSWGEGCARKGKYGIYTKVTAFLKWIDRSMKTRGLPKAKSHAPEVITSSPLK
row,pIC50,SMILES
1,8.10,COC(=O)C[C@@H]1C(=O)N(CC(=O)N[C@@H](CCCNC(=N)N)C(=O)c2nccs2)CCN1S(=O)(=O)Cc1ccccc1
2,9.00,COC(=O)CC[C@@H]1C(=O)N(CC(=O)N[C@@H](CCCNC(=N)N)C(=O)c2nccs2)CCN1S(=O)(=O)Cc1ccccc1
3,7.43,N=C(N)NCCC[C@H](NC(=O)CN1CCN(S(=O)(=O)Cc2ccccc2)[C@H](CC(=O)N2CCCCC2)C1=O)C(=O)c1nccs1
4,8.40,N=C(N)NCCC[C@H](NC(=O)CN1CCN(S(=O)(=O)Cc2ccccc2)[C@H](CCC(=O)O)C1=O)C(=O)c1nccs1
5,8.22,N=C(N)NCCC[C@H](NC(=O)CN1CCN(S(=O)(=O)Cc2ccccc2)[C@H](CO)C1=O)C(=O)c1nccs1
6,6.84,CS(=O)(=O)N1CCN(CC(=O)N[C@@H](CCCN=C(N)N)C(=O)c2nccs2)C(=O)[C@H]1Cc1ccccc1
7,7.51,N=C(N)NCCC[C@H](NC(=O)CN1CCN(S(=O)(=O)Cc2ccccc2)[C@H](CC(=O)O)C1=O)C(=O)c1nccs1
8,7.07,COC(=O)C[C@H]1C(=O)N(CC(=O)N[C@@H](CCCNC(=N)N)C(=O)c2nccs2)CCN1S(=O)(=O)Cc1ccccc1
9,8.15,CCOC(=O)C[C@@H]1C(=O)N(CC(=O)N[C@@H](CCCN=C(N)N)C(=O)c2nccs2)CCN1S(=O)(=O)Cc1ccccc1
10,6.43,N=C(N)NCCC[C@H](NC(=O)CN1CCN(S(=O)(=O)Cc2ccccc2)[C@@H](CC(=O)O)C1=O)C(=O)c1nccs1
11,6.81,N=C(N)NCCC[C@H](NC(=O)CN1CCN(S(=O)(=O)Cc2ccccc2)[C@@H](CC(=O)N2CCCCC2)C1=O)C(=O)c1nccs1
12,7.49,CCOC(=O)C[C@H]1C(=O)N(CC(=O)N[C@@H](CCCN=C(N)N)C(=O)c2nccs2)CCN1S(=O)(=O)Cc1ccccc1

# Second part, the compound before the results:
row,SMILES,pIC50
1,N=C(N)NCCC[C@H](NC(=O)CN1CCN(S(=O)(=O)Cc2ccccc2)[C@@H](Cc2ccccc2)C1=O)C(=O)c1nccs1,9.05
2,N=C(N)NCCC[C@H](NC(=O)CN1CCN(S(=O)(=O)Cc2ccccc2)[C@@H](CCCNC(=N)N)C1=O)C(=O)c1nccs1,8.52
3,N=C(N)NCCC[C@@H](NS(=O)(=O)Cc1ccccc1)C(=O)NC(=O)CN[C@H](CCCNC(=N)N)C(=O)c1nccs1,7.89
4,N=C(N)NCCC[C@H](NC(=O)CN1CCN[C@@H](Cc2ccccc2)C1=O)C(=O)c1nccs1,6.05
5,N=C(N)NCCC[C@H](NC(=O)CN1CCN(S(=O)(=O)Cc2ccccc2)[C@H](Cc2ccccc2)C1=O)C(=O)c1nccs1,7.23
6,N=C(N)NCCC[C@H](NC(=O)CN1CCN(S(=O)(=O)Cc2ccccc2)[C@H](CCCNC(=N)N)C1=O)C(=O)c1nccs1,7.89
7,N=C(N)NCCC[C@H](NC(=O)CN1CCN[C@@H](CCCNC(=N)N)C1=O)C(=O)c1nccs1,7.70
8,CS(=O)(=O)N1CCN(CC(=O)N[C@@H](CCCNC(=N)N)C(=O)c2nccs2)C(=O)[C@@H]1Cc1ccccc1,6.34
9,N=C(N)NCCC[C@H](NC(=O)CN1CC(=O)N[C@@H](CCCNC(=N)N)C1=O)C(=O)c1nccs1,7.96
10,N=C(N)NCCCC(NC(=O)CN1CCN(S(=O)(=O)Cc2ccccc2)CC1=O)C(=O)c1nccs1 (stereo not given),8.40
11,N=C(N)NCCC[C@H](NC(=O)CN1C=CN[C@@H](CCCNC(=N)N)C1=O)C(=O)c1nccs1,6.51
12,N=C(N)NCCC[C@H](NC(=O)CN1CCN(S(=O)(=O)Cc2ccccc2)[C@H](CCC(=O)N2CCCCC2)C1=O)C(=O)c1nccs1,8.40
13,N=C(N)NCCCC(NC(=O)CNC(=O)[C@@H](Cc1ccccc1)NS(=O)(=O)Cc1ccccc1)C(=O)c1nccs1 (stereo not given in full),8.70
14,N=C(N)NCCC[C@H](NC(=O)CN1CC(=O)N[C@H](CCCNC(=N)N)C1=O)C(=O)c1nccs1,7.68

# Target: Prothrombin (Homo sapiens, UniProt P00734)
# Experiment: In vitro inhibitory activity against serine protease thrombin
row,pIC50,SMILES
1,5.30,COC(=O)C[C@@H]1C(=O)N(CC(=O)N[C@@H](CCCNC(=N)N)C(=O)c2nccs2)CCN1S(=O)(=O)Cc1ccccc1
2,5.70,COC(=O)CC[C@@H]1C(=O)N(CC(=O)N[C@@H](CCCNC(=N)N)C(=O)c2nccs2)CCN1S(=O)(=O)Cc1ccccc1
3,5.10,N=C(N)NCCC[C@H](NC(=O)CN1CCN(S(=O)(=O)Cc2ccccc2)[C@H](CC(=O)N2CCCCC2)C1=O)C(=O)c1nccs1
4,5.30,N=C(N)NCCC[C@H](NC(=O)CN1CCN(S(=O)(=O)Cc2ccccc2)[C@H](CCC(=O)O)C1=O)C(=O)c1nccs1
5,5.70,N=C(N)NCCC[C@H](NC(=O)CN1CCN(S(=O)(=O)Cc2ccccc2)[C@H](CO)C1=O)C(=O)c1nccs1
6,5.70,CS(=O)(=O)N1CCN(CC(=O)N[C@@H](CCCN=C(N)N)C(=O)c2nccs2)C(=O)[C@H]1Cc1ccccc1
7,4.40,N=C(N)NCCC[C@H](NC(=O)CN1CCN(S(=O)(=O)Cc2ccccc2)[C@H](CC(=O)O)C1=O)C(=O)c1nccs1
8,6.00,COC(=O)C[C@H]1C(=O)N(CC(=O)N[C@@H](CCCNC(=N)N)C(=O)c2nccs2)CCN1S(=O)(=O)Cc1ccccc1
9,5.52,CCOC(=O)C[C@@H]1C(=O)N(CC(=O)N[C@@H](CCCN=C(N)N)C(=O)c2nccs2)CCN1S(=O)(=O)Cc1ccccc1
10,3.49,N=C(N)NCCC[C@H](NC(=O)CN1CCN(S(=O)(=O)Cc2ccccc2)[C@@H](CC(=O)O)C1=O)C(=O)c1nccs1
11,4.22,N=C(N)NCCC[C@H](NC(=O)CN1CCN(S(=O)(=O)Cc2ccccc2)[C@@H](CC(=O)N2CCCCC2)C1=O)C(=O)c1nccs1
12,5.40,CCOC(=O)C[C@H]1C(=O)N(CC(=O)N[C@@H](CCCN=C(N)N)C(=O)c2nccs2)CCN1S(=O)(=O)Cc1ccccc1

# The remaining lines, values behind:
row,SMILES,pIC50
1,N=C(N)NCCC[C@H](NC(=O)CN1CCN(S(=O)(=O)Cc2ccccc2)[C@@H](Cc2ccccc2)C1=O)C(=O)c1nccs1,6.29
2,N=C(N)NCCC[C@H](NC(=O)CN1CCN(S(=O)(=O)Cc2ccccc2)[C@@H](CCCNC(=N)N)C1=O)C(=O)c1nccs1,4.92
3,N=C(N)NCCC[C@H](NC(=O)CN1CCN[C@H](Cc2ccccc2)C1=O)C(=O)c1nccs1,4.66
4,N=C(N)NCCC[C@H](NC(=O)CN1CCN[C@@H](Cc2ccccc2)C1=O)C(=O)c1nccs1,5.70
5,N=C(N)NCCC[C@H](NC(=O)CN1CCN(S(=O)(=O)Cc2ccccc2)[C@H](Cc2ccccc2)C1=O)C(=O)c1nccs1,5.70
6,N=C(N)NCCC[C@H](NC(=O)CN1CCN(S(=O)(=O)Cc2ccccc2)[C@H](CCCNC(=N)N)C1=O)C(=O)c1nccs1,5.52
7,N=C(N)NCCC[C@H](NC(=O)CN1CCN[C@@H](CCCNC(=N)N)C1=O)C(=O)c1nccs1,4.92
8,CS(=O)(=O)N1CCN(CC(=O)N[C@@H](CCCNC(=N)N)C(=O)c2nccs2)C(=O)[C@@H]1Cc1ccccc1,6.19
9,N=C(N)NCCC[C@H](NC(=O)CN1CC(=O)N[C@@H](CCCNC(=N)N)C1=O)C(=O)c1nccs1,3.82
10,N=C(N)NCCC[C@H](NC(=O)CN1C=CN[C@@H](CCCNC(=N)N)C1=O)C(=O)c1nccs1,3.85
11,N=C(N)NCCC[C@H](NC(=O)CN1CCN(S(=O)(=O)Cc2ccccc2)[C@H](CCC(=O)N2CCCCC2)C1=O)C(=O)c1nccs1,5.52
12,N=C(N)NCCC[C@H](NC(=O)CN1CC(=O)N[C@H](CCCNC(=N)N)C1=O)C(=O)c1nccs1,3.70

# — ChEMBL document CHEMBL1136599, “Design, synthesis, and structure-activity relationships of substituted piperazinone-based transition state factor Xa inhibitors” (Bioorg Med Chem Lett, 2003)
